Here are results for 10 compounds from ChEMBL document CHEMBL1201862, “PubChem BioAssay data set” (2004).

The term GI50 denotes the concentration that inhibits growth by half.

Structures are written as SMILES.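 All cell lines were grown in 96-well plates and treated with compound for 48 hours. Here, GI50 denotes the concentration required for 50% inhibition of growth.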 The source made the active and inactive calls. Cut-off read from the data, not from the text of the source: active = GI50 up to about 1.1 µM and inactive = higher.

Common to all, as to assay: DTP human tumour cell line panel, 48 h
For assay [1], the system named is MDA-MB-231.
For assay [2], the system named is RPMI-8226.
The subject of assay [3] is K562.
The subject of assay [4] is SF-268.
Assay [5] concerns SK-MEL-28.
Assay [6] concerns DU-145.
Assay [7] has as its system HCT-116.
Assay [8] deals with SK-MEL-2.
The test system of assay [9] is NCI/ADR-RES.
In assay [10] the test system is PC-3.
Assay [11] deals with A549.
Assay [12] deals with Hs-578T.
Assay [13] deals with SNB-19.
The subject of assay [14] is IGROV-1.
In assay [15] the test system is HT-29.
For assay [16], the system named is EKVX.
The subject of assay [17] is CCRF-CEM.
Assay [18] deals with MCF7.
Assay [19] relates to NCI-H226.
For assay [20], the system named is MOLT-4.

Take `COc1cc(C2c3cc4c(cc3OC(N3CCCC3)C2C)OCO4)cc(OC)c1O` (configuration not stated): the GI50 in assay [1] was 19.4 µM (inactive); in [2], 45.6 µM (inactive); in assay [3], 4.88 µM (inactive); in assay [4], 22.9 µM (inactive); in assay [5] it was > 43.9 µM (inactive); in assay [6], 31.7 µM (inactive). Also, the GI50 is 9.98 µM (inactive) in assay [7]; 14.8 µM (inactive) in assay [8]; 5.93 µM (inactive) in assay [9]; 20.8 µM (inactive) in assay [10]; 19 µM (inactive) in assay [11]; 4.66 µM (inactive) in assay [12]. For the same compound, the GI50 in [13] is 13.2 µM (inactive); in assay [14], 19.4 µM (inactive); in assay [15], 17.4 µM (inactive); in assay [16], 32.5 µM (inactive); in [17], 15.1 µM (inactive); in assay [18], 9.93 µM (inactive). Besides, the GI50 in [19] is 25.5 µM (inactive); in [20], 24.6 µM (inactive).
For the compound `CCN(CCCl)c1cc(CN(C)C)cc(NC(=O)c2ccc(C(=O)Nc3cccc(CN(C)C)c3)cc2)c1`, the GI50 in assay [1] is 28.1 µM (inactive); in assay [2], 2.16 µM (inactive); in [3], 0.321 µM (active); in assay [4], 0.364 µM (active); in assay [5] it was 2.07 µM (inactive); in [6], 3.74 µM (inactive). The GI50 in [7] is 0.51 µM (active); in [8], 0.467 µM (active); in [9], > 100 µM (inactive); in [10], 0.305 µM (active); in [11], 2.2 µM (inactive); in assay [12] it was 0.23 µM (active). The GI50 is 0.286 µM (active) in assay [13]; 0.274 µM (active) in assay [14]; 1.35 µM (inactive) in assay [15]; 0.0708 µM (active) in assay [17]; 0.11 µM (active) in assay [18]; 3.21 µM (inactive) in assay [19]. For the same compound, the GI50 in [20] was 0.261 µM (active).
As to `O=C1NI(C#Cc2ccccc2)c2ccccc21`, the GI50 was > 100 µM (inactive) in [1]; 43.7 µM (inactive) in assay [2]; > 100 µM (inactive) in assay [3]; > 100 µM (inactive) in assay [4]; > 100 µM (inactive) in assay [5]; > 100 µM (inactive) in [6]. Also, the GI50 was > 100 µM (inactive) in assay [7]; > 100 µM (inactive) in assay [8]; > 100 µM (inactive) in [9]; 19 µM (inactive) in [10]; 59 µM (inactive) in [11]; > 100 µM (inactive) in assay [12]. In addition, the GI50 in assay [13] was > 100 µM (inactive); in [14], > 100 µM (inactive); in assay [15] it was > 100 µM (inactive); in assay [17], 40.6 µM (inactive); in [18] it was 22.2 µM (inactive); in assay [19], > 100 µM (inactive). Further, in [20], the GI50 was 65.3 µM (inactive).
With `COc1ccc2c(=O)c(-c3cc4c(cc3OC)OCO4)coc2c1`, the GI50 in [1] is 61.5 µM (inactive); in [2], > 100 µM (inactive); in [4] it was 72.8 µM (inactive); in assay [5] it was > 100 µM (inactive); in assay [6] it was > 100 µM (inactive); in [7], > 100 µM (inactive). Moreover, the GI50 is > 100 µM (inactive) in assay [8]; > 100 µM (inactive) in assay [9]; > 100 µM (inactive) in assay [10]; > 100 µM (inactive) in [11]; > 100 µM (inactive) in [12]; 52 µM (inactive) in assay [13]. Moreover, the GI50 was 58.9 µM (inactive) in assay [14]; > 100 µM (inactive) in [15]; > 100 µM (inactive) in assay [16]; > 100 µM (inactive) in assay [17]; 97.3 µM (inactive) in [18]; > 100 µM (inactive) in [19]. Besides, the GI50 in [20] was > 100 µM (inactive).
On to `O=C1CSC(c2ccccc2)N1c1nc2cc3sc(N4C(=O)CSC4c4ccccc4)nc3cc2s1` (configuration not stated), for which the GI50 was 68.7 µM (inactive) in [1]; 71.1 µM (inactive) in assay [2]; 47.4 µM (inactive) in [3]; > 87.3 µM (inactive) in assay [4]; > 100 µM (inactive) in assay [5]; 15.2 µM (inactive) in assay [6]. The GI50 in assay [7] is 24.6 µM (inactive); in [8], 63.7 µM (inactive); in [9] it was 25.2 µM (inactive); in assay [10], 48.4 µM (inactive); in assay [11], 8.17 µM (inactive); in assay [12] it was > 51.2 µM (inactive). Also, the GI50 in assay [13] is 78.3 µM (inactive); in assay [14], 23.4 µM (inactive); in assay [15] it was 19.1 µM (inactive); in [16], 22.1 µM (inactive); in assay [17], 4.35 µM (inactive); in assay [18], 12.9 µM (inactive). The GI50 in assay [19] is 15.8 µM (inactive); in [20], 5.86 µM (inactive).
As to `COc1ccc(/C=C/C2=NN(c3cccc(S(=O)(=O)O)c3)C3(C2)SCC(=O)N3c2nc3ccccc3s2)cc1` (configuration not stated), the GI50 is 67 µM (inactive) in [1]; 22.8 µM (inactive) in assay [2]; 31.3 µM (inactive) in assay [3]; 98.6 µM (inactive) in assay [4]; > 100 µM (inactive) in assay [5]; 66.5 µM (inactive) in assay [6]. Moreover, the GI50 was > 100 µM (inactive) in assay [7]; 95.5 µM (inactive) in assay [8]; 59 µM (inactive) in [9]; 68.7 µM (inactive) in [10]; 90.4 µM (inactive) in assay [11]; > 100 µM (inactive) in [12]. Moreover, the GI50 is 97.1 µM (inactive) in [13]; 30.8 µM (inactive) in assay [14]; > 100 µM (inactive) in assay [15]; 64.7 µM (inactive) in [16]; 17.3 µM (inactive) in [17]; 46.8 µM (inactive) in assay [18]. Moreover, the GI50 in [19] is 24.6 µM (inactive); in assay [20], 17.5 µM (inactive).
Turning to `COC1CC(O[C@H]2CC[C@@]3(C)[C@@H](CC[C@]4(O)[C@@H]3CC[C@]3(C)[C@@H](C(C)=O)[C@H](OC(=O)CC(C)C)[C@@H](OC(=O)c5ccccc5)[C@@]34O)C2)OC(C)C1OC1CC(OC)C(OC2OC(C)C(O)C(OC)C2O)C(C)O1` (some centres not stated), the GI50 is 18.4 µM (inactive) in [1]; 6.12 µM (inactive) in assay [2]; 11 µM (inactive) in assay [3]; > 25 µM (inactive) in assay [4]; > 25 µM (inactive) in [5]; > 25 µM (inactive) in [6]. Moreover, the GI50 is 10.4 µM (inactive) in assay [7]; > 25 µM (inactive) in assay [8]; 19.9 µM (inactive) in assay [9]; 11.7 µM (inactive) in assay [10]; 7.89 µM (inactive) in assay [11]; 8.09 µM (inactive) in assay [12]. In addition, the GI50 in assay [13] was > 25 µM (inactive); in [14] it was 11.6 µM (inactive); in assay [15], 11.9 µM (inactive); in assay [16], 9.68 µM (inactive); in assay [17] it was 17.8 µM (inactive); in assay [18], 11.4 µM (inactive). Also, the values for the GI50 in assay [19] and in assay [20] were 13.6 µM (inactive) and 7.08 µM (inactive), respectively.
`Cc1cccc(C(C)(C)C)c1NC(=O)C(C#N)C1=C(Cl)C(=O)c2ccccc2C1=O` (configuration not stated): the GI50 is 14 µM (inactive) in assay [1]; 8.83 µM (inactive) in assay [2]; 3.05 µM (inactive) in [3]; 17.1 µM (inactive) in [4]; 16.9 µM (inactive) in assay [5]; 22 µM (inactive) in assay [6]. For the same compound, the GI50 in [7] was 14.1 µM (inactive); in assay [8] it was 16.1 µM (inactive); in assay [9], 16.6 µM (inactive); in [10], 13.5 µM (inactive); in assay [11], 21.7 µM (inactive); in [12], 21.1 µM (inactive). The GI50 was 18.3 µM (inactive) in assay [13]; 18.4 µM (inactive) in assay [14]; 20.8 µM (inactive) in [15]; 12.5 µM (inactive) in assay [16]; 0.843 µM (active) in assay [17]; 15.8 µM (inactive) in assay [18]. The GI50 was 9.66 µM (inactive) in assay [19] and 2.74 µM (inactive) in assay [20].
For `Cc1ccccc1/N=C/N(C)C`, the GI50 in assay [1] is 39 µM (inactive); in assay [2], 13.3 µM (inactive); in assay [3], 14.1 µM (inactive); in [4] it was 57.4 µM (inactive); in [5] it was 75.3 µM (inactive); in [6] it was 44.2 µM (inactive). Further, the GI50 in assay [7] was 33.8 µM (inactive); in [8] it was 15 µM (inactive); in assay [9], > 100 µM (inactive); in assay [10], 26.7 µM (inactive); in assay [11], 39.6 µM (inactive); in [12], 44.7 µM (inactive). Also, the GI50 is 56.8 µM (inactive) in assay [13]; 37.3 µM (inactive) in [14]; 34.3 µM (inactive) in assay [15]; 35.3 µM (inactive) in [16]; 23.2 µM (inactive) in [17]; 31.5 µM (inactive) in assay [18]. Moreover, the GI50 in assay [19] was 48.4 µM (inactive); in assay [20], 29.9 µM (inactive).
In the case of `NCCCNCCCCN1CCOC1=O`, the GI50 in [1], in assay [2], in assay [3], in [4], in assay [5] and in assay [6] was > 100 µM (inactive) in each case. Further, the GI50 in assay [7], in assay [8], in [9], in [10], in [11] and in assay [12] was > 100 µM (inactive) throughout. The GI50 in assay [13], in assay [14], in assay [15], in [16], in [17] and in assay [18] was > 100 µM (inactive) each time. The GI50 in [19] and in assay [20] was > 100 µM (inactive) each time.
